According to patent publication US20190185518A9, “WARHEAD-CONTAINING PEPTIDOMIMETIC MACROCYCLES AS MODULATORS OF BFL-1” (AILERON Therapeutics, Inc., priority 2017, published 2019):
Positions of bridges follow the written chain, without caps; N, C: chain ends. Non-standard residues stand in square brackets, D forms with d. Residues, ends and D or L forms follow the SMILES beside them. Phe(4-CF3) = N[C@@H](Cc1ccc(C(F)(F)F)cc1)C(=O)O; Phe(4-tBu) = CC(C)(C)c1ccc(C[C@H](N)C(=O)O)cc1; Phe(4-F) = N[C@@H](Cc1ccc(F)cc1)C(=O)O; R8 = C=CCCCCCC[C@@](C)(N)C(=O)O; Cha = N[C@@H](CC1CCCCC1)C(=O)O; αMeL = CC(C)C[C@](C)(N)C(=O)O; hLeu = CC(C)CC[C@H](N)C(=O)O; S5 = C=CCCC[C@](C)(N)C(=O)O; Aib = CC(C)(N)C(=O)O

Legend:
Bcl-2 = Bcl-2 (Homo sapiens, UniProt P10415); assay: Ki determination for Bcl-2 (BCL-2 family binding spectrum); conditions: read-out: Ki BCL-2
Sequence of Bcl-2 (P10415 whole entry, species assumed): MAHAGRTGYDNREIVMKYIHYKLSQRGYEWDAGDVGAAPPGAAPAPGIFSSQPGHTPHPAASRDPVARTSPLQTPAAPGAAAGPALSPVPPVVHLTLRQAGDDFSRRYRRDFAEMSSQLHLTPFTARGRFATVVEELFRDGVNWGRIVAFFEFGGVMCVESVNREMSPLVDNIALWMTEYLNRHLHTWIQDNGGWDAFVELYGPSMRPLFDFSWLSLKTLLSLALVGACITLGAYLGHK
From the text: (§1) To assess the binding and affinity of compounds that antagonize the interaction between a peptide and an acceptor protein, a fluorescence polarization assay (FPA) utilizing a fluoresceinated peptidomimetic macrocycle derived from a peptidomimetic precursor sequence is used, for example. The FPA technique measures the molecular orientation and mobility using polarized light and fluorescent tracer. […] A compound that antagonizes the interaction between the fluoresceinated peptidomimetic macrocycle and an acceptor protein will be detected in a competitive binding FPA experiment.
(§2) For example, putative antagonist compounds (1 nM to 1 mM) and a fluoresceinated peptidomimetic macrocycle (25 nM) are incubated with the acceptor protein (50 nM) in binding buffer (140 mM NaCl, 50 mM Tris-HCL, pH 7.4) for 30 minutes at room temperature. Antagonist binding activity is measured, for example, by fluorescence polarization on a luminescence spectrophotometer (e.g. Perkin-Elmer LS50B). Kd values may be determined by nonlinear regression analysis using, for example, Graphpad Prism software (GraphPad Software, Inc., San Diego, Calif.).

Bcl-xL = Bcl-xL (Homo sapiens, UniProt Q07817); assay: Ki determination for Bcl-xL (BCL-2 family binding spectrum); conditions: read-out: Ki BCL-XL
Sequence of Bcl-xL (Q07817 whole entry, species assumed): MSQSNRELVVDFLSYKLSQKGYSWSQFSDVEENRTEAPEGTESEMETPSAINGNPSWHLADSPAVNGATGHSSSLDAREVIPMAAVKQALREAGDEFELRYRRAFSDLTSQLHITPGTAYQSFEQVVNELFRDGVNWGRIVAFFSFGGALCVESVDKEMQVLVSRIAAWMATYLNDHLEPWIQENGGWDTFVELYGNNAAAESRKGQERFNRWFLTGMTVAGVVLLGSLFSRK
From the text: as §1, §2

Mcl-1 = Mcl-1 (Homo sapiens, UniProt Q07820); assay: Ki determination for Mcl-1 (BCL-2 family binding spectrum); conditions: read-out: Ki MCL-1
Sequence of Mcl-1 (Q07820 whole entry, species assumed): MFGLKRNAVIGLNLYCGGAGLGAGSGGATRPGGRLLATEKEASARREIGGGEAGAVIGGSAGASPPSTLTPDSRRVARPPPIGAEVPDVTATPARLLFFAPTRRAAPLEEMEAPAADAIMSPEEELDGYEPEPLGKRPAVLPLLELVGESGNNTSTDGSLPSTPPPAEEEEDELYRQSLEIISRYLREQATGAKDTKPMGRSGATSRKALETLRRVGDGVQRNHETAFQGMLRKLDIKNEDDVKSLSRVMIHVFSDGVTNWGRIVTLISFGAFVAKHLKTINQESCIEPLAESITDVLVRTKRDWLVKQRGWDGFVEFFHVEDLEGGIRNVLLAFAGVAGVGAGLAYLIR
From the text: as §1
Antagonist binding activity is measured, for example, by fluorescence polarization on a luminescence spectrophotometer (e.g. Perkin-Elmer LS50B). Kd values may be determined by nonlinear regression analysis using, for example, Graphpad Prism software (GraphPad Software, Inc., San Diego, Calif.).

Structure (SMILES) | Ki (Bcl-2) [nM] | Ki (Bcl-xL) [nM] | Ki (Mcl-1) [nM]
CC[C@H](C)[C@H](NC(C)=O)C(=O)N[C@@H](Cc1c[nH]c2ccccc12)C(=O)N[C@H](C(=O)N[C@@H](C)C(=O)N[C@@H](CCC(N)=O)C(=O)N[C@@H](C)C(=O)N[C@@H](CC1CCCCC1)C(=O)N[C@@H](CCCNC(=N)N)C(=O)N[C@]1(C)CCCCCCC=CCCC[C@@](C)(C(=O)N[C@@H](Cc2ccc(O)cc2)C(=O)N[C@@H](Cc2ccc(O)cc2)C(=O)N[C@@H](C)C(N)=O)NC(=O)[C@H](CC(N)=O)NC(=O)[C@H](Cc2ccccc2)NC(=O)[C@H](C)NC(=O)[C@H](CC(=O)O)NC(=O)CNC(=O)[C@H]([C@@H](C)CC)NC1=O)[C@@H](C)CC [compound 1687] (Ac-IWIAQA[Cha]R[R8]IGDAFN[S5]YYA-NH2; staple 9-16) | > 1000 |  | 
CC[C@H](C)[C@H](NC(=O)[C@H](Cc1c[nH]c2ccccc12)NC(=O)[C@](C)(CC(C)C)NC(C)=O)C(=O)N[C@@H](C)C(=O)N[C@@H](CCC(N)=O)C(=O)N[C@@H](C)C(=O)N[C@@H](CC(C)C)C(=O)N[C@@H](CCCNC(=N)N)C(=O)N[C@]1(C)CCCCCCC=CCCC[C@@](C)(C(=O)N[C@@H](Cc2ccc(O)cc2)C(=O)N[C@@H](Cc2ccc(O)cc2)C(=O)N[C@@H](C)C(N)=O)NC(=O)[C@H](CC(N)=O)NC(=O)[C@H](Cc2ccccc2)NC(=O)[C@H](C)NC(=O)[C@H](CC(=O)O)NC(=O)CNC(=O)[C@H]([C@@H](C)CC)NC1=O [compound 1705] (Ac-[αMeL]WIAQALR[R8]IGDAFN[S5]YYA-NH2; staple 9-16) |  | 8.4 | 5.2
CC[C@H](C)[C@H](NC(C)=O)C(=O)N[C@@H](Cc1c[nH]c2ccccc12)C(=O)N[C@H](C(=O)N[C@@H](C)C(=O)N[C@@H](CCC(N)=O)C(=O)N[C@@H](C)C(=O)N[C@@H](Cc1ccc(C(F)(F)F)cc1)C(=O)N[C@@H](CCCNC(=N)N)C(=O)N[C@]1(C)CCCCCCC=CCCC[C@@](C)(C(=O)N[C@@H](Cc2ccc(O)cc2)C(=O)N[C@@H](Cc2ccc(O)cc2)C(=O)N[C@@H](C)C(N)=O)NC(=O)[C@H](CC(N)=O)NC(=O)[C@H](Cc2ccccc2)NC(=O)[C@H](C)NC(=O)[C@H](CC(=O)O)NC(=O)CNC(=O)[C@H]([C@@H](C)CC)NC1=O)[C@@H](C)CC [compound 1694] (Ac-IWIAQA[Phe(4-CF3)]R[R8]IGDAFN[S5]YYA-NH2; staple 9-16) | > 1000 |  | 
CC[C@H](C)[C@H](NC(C)=O)C(=O)N[C@@H](Cc1c[nH]c2ccccc12)C(=O)N[C@H](C(=O)N[C@@H](C)C(=O)N[C@@H](C)C(=O)N[C@@H](C)C(=O)N[C@@H](CC(C)C)C(=O)N[C@@H](CCCCN)C(=O)N[C@]1(C)CCCCCCC=CCCC[C@@](C)(C(=O)N[C@@H](Cc2ccc(O)cc2)C(=O)N[C@@H](Cc2ccc(O)cc2)C(=O)N[C@@H](C)C(N)=O)NC(=O)[C@H](CC(N)=O)NC(=O)[C@H](Cc2ccccc2)NC(=O)[C@H](C)NC(=O)[C@H](CC(=O)O)NC(=O)CNC(=O)[C@H]([C@@H](C)CC)NC1=O)[C@@H](C)CC [compound 1737] (Ac-IWIAAALK[R8]IGDAFN[S5]YYA-NH2; staple 9-16) | 25.6 |  | 
CC[C@H](C)[C@H](NC(C)=O)C(=O)N[C@@H](Cc1c[nH]c2ccccc12)C(=O)N[C@H](C(=O)N[C@@H](C)C(=O)N[C@@H](CCC(N)=O)C(=O)N[C@@H](C)C(=O)N[C@@H](CC(C)C)C(=O)N[C@@H](CCCNC(=N)N)C(=O)N[C@]1(C)CCCCCCC=CCCC[C@@](C)(C(=O)N[C@@H](Cc2ccc(O)cc2)C(=O)N[C@@H](Cc2ccc(F)cc2)C(=O)N[C@@H](C)C(N)=O)NC(=O)[C@H](CC(N)=O)NC(=O)[C@H](Cc2ccccc2)NC(=O)[C@H](C)NC(=O)[C@H](CC(=O)O)NC(=O)CNC(=O)[C@H](CCC(C)C)NC1=O)[C@@H](C)CC [compound 1777] (Ac-IWIAQALR[R8][hLeu]GDAFN[S5]Y[Phe(4-F)]A-NH2; staple 9-16) |  | 13 | 27
CC[C@H](C)[C@H](NC(C)=O)C(=O)N[C@@H](Cc1c[nH]c2ccccc12)C(=O)N[C@H](C(=O)N[C@@H](C)C(=O)N[C@@H](CCC(N)=O)C(=O)N[C@@H](C)C(=O)N[C@@H](CC(C)C)C(=O)N[C@@H](CCCNC(=N)N)C(=O)N[C@]1(C)CCCCCCC=CCCC[C@@](C)(C(=O)N[C@@H](Cc2ccc(O)cc2)C(=O)N[C@@H](Cc2ccc(O)cc2)C(=O)N[C@@H](C)C(N)=O)NC(=O)[C@H](C)NC(=O)[C@H](Cc2ccccc2)NC(=O)[C@H](CCC(=O)O)NC(=O)[C@H](CC(=O)O)NC(=O)CNC(=O)[C@H]([C@@H](C)CC)NC1=O)[C@@H](C)CC [compound 1643] (Ac-IWIAQALR[R8]IGDEFA[S5]YYA-NH2; staple 9-16) |  | 15.4 | 

Continued, values first:

Ki (Bcl-2) [nM] | Ki (Bcl-xL) [nM] | Ki (Mcl-1) [nM] | Structure (SMILES)
142 |  |  | CC[C@H](C)[C@H](NC(C)=O)C(=O)N[C@@H](Cc1c[nH]c2ccccc12)C(=O)N[C@H](C(=O)N[C@@H](C)C(=O)N[C@@H](C)C(=O)N[C@@H](C)C(=O)N[C@@H](CC(C)C)C(=O)N[C@@H](CCCNC(=N)N)C(=O)N[C@]1(C)CCCCCCC=CCCC[C@@](C)(C(=O)N[C@@H](Cc2ccc(O)cc2)C(=O)N[C@@H](Cc2ccc(O)cc2)C(=O)N[C@@H](C)C(N)=O)NC(=O)[C@H](CC(N)=O)NC(=O)[C@H](Cc2ccccc2)NC(=O)[C@H](C)NC(=O)[C@H](CCC(=O)O)NC(=O)CNC(=O)[C@H]([C@@H](C)CC)NC1=O)[C@@H](C)CC [compound 1740] (Ac-IWIAAALR[R8]IGEAFN[S5]YYA-NH2; staple 9-16)
120 |  |  | CC[C@H](C)[C@H](NC(C)=O)C(=O)N[C@@H](Cc1c[nH]c2ccccc12)C(=O)N[C@H](C(=O)N[C@@H](C)C(=O)NC(C)(C)C(=O)N[C@@H](C)C(=O)N[C@@H](CC(C)C)C(=O)N[C@@H](CCCNC(=N)N)C(=O)N[C@]1(C)CCCCCCC=CCCC[C@@](C)(C(=O)N[C@@H](Cc2ccc(O)cc2)C(=O)N[C@@H](Cc2ccc(O)cc2)C(=O)N[C@@H](C)C(N)=O)NC(=O)[C@H](CC(N)=O)NC(=O)[C@H](Cc2ccccc2)NC(=O)[C@H](C)NC(=O)[C@H](CC(=O)O)NC(=O)CNC(=O)[C@H]([C@@H](C)CC)NC1=O)[C@@H](C)CC [compound 1708] (Ac-IWIA[Aib]ALR[R8]IGDAFN[S5]YYA-NH2; staple 9-16)
142 |  |  | CC[C@H](C)[C@H](NC(C)=O)C(=O)N[C@@H](Cc1c[nH]c2ccccc12)C(=O)N[C@H](C(=O)N[C@@H](C)C(=O)N[C@@H](C)C(=O)N[C@@H](C)C(=O)N[C@@H](CC(C)C)C(=O)N[C@@H](CCCNC(=N)N)C(=O)N[C@]1(C)CCCCCCC=CCCC[C@@](C)(C(=O)N[C@@H](Cc2ccc(O)cc2)C(=O)N[C@@H](Cc2ccc(O)cc2)C(=O)N[C@@H](CCCNC(=N)N)C(N)=O)NC(=O)[C@H](CC(N)=O)NC(=O)[C@H](Cc2ccccc2)NC(=O)[C@H](C)NC(=O)[C@H](CC(=O)O)NC(=O)CNC(=O)[C@H]([C@@H](C)CC)NC1=O)[C@@H](C)CC [compound 1765] (Ac-IWIAAALR[R8]IGDAFN[S5]YYR-NH2; staple 9-16)
 | 154 | 21.2 | CC[C@H](C)[C@H](NC(C)=O)C(=O)N[C@@H](Cc1c[nH]c2ccccc12)C(=O)N[C@H](C(=O)N[C@@H](C)C(=O)N[C@@H](CCC(N)=O)C(=O)N[C@@H](C)C(=O)N[C@@H](CC(C)C)C(=O)N[C@@H](CCCNC(=N)N)C(=O)N[C@]1(C)CCCCCCC=CCCC[C@@](C)(C(=O)N[C@@H](Cc2ccc(O)cc2)C(=O)N[C@@H](Cc2ccc(O)cc2)C(=O)N[C@@H](C)C(N)=O)NC(=O)[C@H](CC(N)=O)NC(=O)[C@H](Cc2ccc(C(C)(C)C)cc2)NC(=O)[C@H](C)NC(=O)[C@H](CC(=O)O)NC(=O)CNC(=O)[C@H]([C@@H](C)CC)NC1=O)[C@@H](C)CC [compound 1745] (Ac-IWIAQALR[R8]IGDA[Phe(4-tBu)]N[S5]YYA-NH2; staple 9-16)
 | > 1000 | > 1000 | CC[C@H](C)[C@H](NC(C)=O)C(=O)N[C@@H](Cc1c[nH]c2ccccc12)C(=O)N[C@H](C(=O)N[C@@H](C)C(=O)N[C@@H](CCC(N)=O)C(=O)N[C@@H](C)C(=O)N[C@@H](C)C(=O)N[C@@H](CCCNC(=N)N)C(=O)N[C@]1(C)CCCCCCC=CCCC[C@@](C)(C(=O)N[C@@H](Cc2ccc(F)cc2)C(=O)N[C@@H](Cc2ccc(F)cc2)C(=O)N[C@@H](C)C(N)=O)NC(=O)[C@H](CC(N)=O)NC(=O)[C@H](Cc2ccccc2)NC(=O)[C@H](C)NC(=O)[C@H](CC(=O)O)NC(=O)CNC(=O)[C@H](CCC(C)C)NC1=O)[C@@H](C)CC [compound 1781] (Ac-IWIAQAAR[R8][hLeu]GDAFN[S5][Phe(4-F)][Phe(4-F)]A-NH2; staple 9-16)
 | 36.3 | 8 | CC[C@H](C)[C@H](NC(C)=O)C(=O)N[C@@H](Cc1c[nH]c2ccccc12)C(=O)N[C@H](C(=O)N[C@@H](C)C(=O)N[C@@H](C)C(=O)N[C@@H](C)C(=O)N[C@@H](CC(C)C)C(=O)N[C@@H](CCCNC(=N)N)C(=O)N[C@]1(C)CCCCCCC=CCCC[C@@](C)(C(=O)N[C@@H](Cc2ccc(O)cc2)C(=O)N[C@@H](Cc2ccc(O)cc2)C(=O)N[C@@H](C)C(N)=O)NC(=O)[C@H](Cc2c[nH]cn2)NC(=O)[C@H](Cc2ccccc2)NC(=O)[C@H](C)NC(=O)[C@H](CC(=O)O)NC(=O)CNC(=O)[C@H]([C@@H](C)CC)NC1=O)[C@@H](C)CC [compound 1752] (Ac-IWIAAALR[R8]IGDAFH[S5]YYA-NH2; staple 9-16)
